Measurements published in patent US8906904B2, “Alkoxy pyrazoles as soluble guanylate cyclase activators” (Boehringer Ingelheim International GmbH, priority 2012, dated 2014).

Experiments:
[1] = human liver microsome (HLM) metabolic stability assay; assay type: in vitro ADME; settings: human liver microsomes; % hepatic blood flow calculated from t1/2
Method in brief: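 Compounds at 1 uM incubated with human liver microsomes plus NADPH at 37° C., sampled at 0, 5, 15, 30 and 60 min into cold acetonitrile and quantified by LC/MS/MS. t½ from the slope of ln % remaining vs time; CLint, CLh and % Qh derived from it (n=1).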

[2] = biological target: T1, human soluble guanylate cyclase alpha 1 and beta 1 subunits (sGC) (Homo sapiens, UniProt Q02108+Q02153); test: sGC cellular activator assay (cGMP, HTRF); assay type: cell-based; settings: CHO cells stably expressing human sGC alpha 1/beta 1, preincubated with 40 microM ODQ; cGMP readout; assay run with and without 50% human serum, Table 2 does not say which
T1 construct: expressed in transfected cells; host or cells: Chinese hamster ovary (CHO) cells, stably transfected
T1 sequence (Q02108 1-690): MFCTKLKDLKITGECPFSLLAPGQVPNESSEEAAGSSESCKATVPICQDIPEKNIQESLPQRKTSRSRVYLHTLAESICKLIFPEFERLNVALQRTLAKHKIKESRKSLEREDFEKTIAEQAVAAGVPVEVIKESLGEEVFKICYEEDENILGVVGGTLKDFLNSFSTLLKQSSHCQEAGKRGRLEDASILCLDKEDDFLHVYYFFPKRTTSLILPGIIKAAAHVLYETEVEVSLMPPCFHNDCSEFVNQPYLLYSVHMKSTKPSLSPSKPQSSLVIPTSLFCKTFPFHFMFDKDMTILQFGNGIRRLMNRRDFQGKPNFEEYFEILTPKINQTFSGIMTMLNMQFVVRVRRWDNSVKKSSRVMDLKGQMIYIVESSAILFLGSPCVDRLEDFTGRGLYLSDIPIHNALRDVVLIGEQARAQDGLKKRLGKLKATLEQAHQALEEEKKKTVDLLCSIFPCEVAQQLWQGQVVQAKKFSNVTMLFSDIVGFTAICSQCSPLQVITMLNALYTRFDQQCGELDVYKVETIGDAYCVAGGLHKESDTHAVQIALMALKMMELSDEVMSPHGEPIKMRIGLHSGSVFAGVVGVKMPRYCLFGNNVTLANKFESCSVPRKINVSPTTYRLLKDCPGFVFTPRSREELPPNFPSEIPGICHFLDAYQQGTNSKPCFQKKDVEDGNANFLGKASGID
T1 sequence (Q02153 1-619): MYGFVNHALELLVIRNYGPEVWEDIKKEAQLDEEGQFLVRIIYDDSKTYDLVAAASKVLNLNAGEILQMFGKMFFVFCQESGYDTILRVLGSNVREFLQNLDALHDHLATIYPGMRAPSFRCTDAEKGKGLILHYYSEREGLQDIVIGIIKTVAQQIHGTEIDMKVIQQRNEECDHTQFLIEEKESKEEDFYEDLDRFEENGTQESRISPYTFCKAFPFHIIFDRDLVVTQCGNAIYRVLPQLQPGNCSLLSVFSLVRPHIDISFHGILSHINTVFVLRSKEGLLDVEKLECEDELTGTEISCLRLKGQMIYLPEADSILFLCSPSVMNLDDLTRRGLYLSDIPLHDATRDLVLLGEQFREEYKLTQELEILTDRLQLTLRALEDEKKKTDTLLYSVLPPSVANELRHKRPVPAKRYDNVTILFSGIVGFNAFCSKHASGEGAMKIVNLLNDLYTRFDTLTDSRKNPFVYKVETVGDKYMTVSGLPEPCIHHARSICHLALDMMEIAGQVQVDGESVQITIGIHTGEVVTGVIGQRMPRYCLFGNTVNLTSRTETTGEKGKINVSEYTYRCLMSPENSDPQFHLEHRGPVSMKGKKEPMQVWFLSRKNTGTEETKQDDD
Method in brief: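 First, CHO-sGC (human α1β1) cells get 1 h ODQ at 40 microM with IBMX and 0.1% BSA. Finally, cGMP is quantified by HTRF and EC50 computed.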

| HLM (% Qh) [1] [% Qh] | EC50 [2] [µM] | Compound |
| --- | --- | --- |
| <24 | 0.027 | CCOc1c(C(=O)O)cnn1-c1cccc(-c2cccc(C)c2OCc2ccc3c(c2)CCN(C2CCCOC2)C3)n1 (centres unmarked) [Compound 36] |
| <24 | 0.029 | COc1c(C(=O)O)cnn1-c1cccc(-c2cccc(C)c2OCc2ccc3c(c2)CCN(C2CCOCC2)C3)n1 [Compound 3] |
| <24 | 0.029 | COc1c(C(=O)O)cnn1-c1cccc(-c2cccc(C(F)(F)F)c2OCc2ccc3c(c2)CCN(C2CCOCC2)C3)n1 [Compound 83] |
| <24 | 0.17 | COc1c(C(=O)O)cnn1-c1cccc(-c2cc(F)cc(F)c2OCc2ccc3c(c2)CCN(C2COC2)C3)n1 [Compound 52] |
| <24 | 0.061 | CCOc1c(C(=O)O)cnn1-c1cccc(-c2cccc(C)c2OCc2ccc3c(c2)CCN(CC2CCOCC2)C3)n1 [Compound 69] |
| 40 | 0.99 | CCOc1c(C(=O)O)cnn1-c1cccc(-c2cccc(Cl)c2OCc2ccc3c(c2)CCNC3)n1 [Compound 50] |
| <24 | 0.033 | CCOc1c(C(=O)O)cnn1-c1cccc(-c2cccc(C)c2OCc2ccc3c(c2)CCN(C2CCOC(CC)C2)C3)n1 (centres unmarked) [Compound 79] |
| <24 | 0.038 | CCOc1c(C(=O)O)cnn1-c1cccc(-c2cccc(C)c2OCc2ccc3c(c2)CCN(CC2CCOC2)C3)n1 (centres unmarked) [Compound 68] |
| <24 | 0.075 | COc1c(C(=O)O)cnn1-c1cccc(-c2cccc(C)c2OCc2ccc3c(c2)CCN([C@H]2CC[C@@H](OC)CC2)C3)n1 [Compound 91] |
| <24 | 0.069 | COc1c(C(=O)O)cnn1-c1cccc(-c2cccc(C)c2OCc2ccc3c(c2)CCN([C@H]2CC[C@H](OC)CC2)C3)n1 [Compound 90] |
| <24 | 0.008 | COc1c(C(=O)O)cnn1-c1cccc(-c2cccc(C)c2OCc2ccc3c(c2)CN(CC2CC(F)(F)C2)C3)n1 [Compound 82] |
| <24 | 0.048 | CCOc1c(C(=O)O)cnn1-c1cccc(-c2cccc(C)c2OCc2ccc3c(c2)CCN(C2CCOC(C)C2)C3)n1 (centres unmarked) [Compound 78] |
| <24 | 0.024 | COc1c(C(=O)O)cnn1-c1cccc(-c2cccc(C)c2OCc2ccc3c(c2)CCN(C2CC(C)OC(C)C2)C3)n1 (centres unmarked) [Compound 62] |
| <24 | 0.044 | COCC(C)N1CCc2c(ccc(COc3c(C)cccc3-c3cccc(-n4ncc(C(=O)O)c4OC(C)C)n3)c2C)C1 (centres unmarked) [Compound 44] |
| <24 | 0.071 | CCOc1c(C(=O)O)cnn1-c1cccc(-c2cccc(C)c2OCc2ccc3c(c2)CCN(C2CCOCC2C)C3)n1 (centres unmarked) [Compound 64] |
| <24 | 0.024 | CCOc1c(C(=O)O)cnn1-c1cccc(-c2cccc(Cl)c2OCc2ccc3c(c2)CCN(C2CCC(F)(F)CC2)C3)n1 [Compound 57] |

| HLM (% Qh) [1] [% Qh] | EC50 [2] [µM] | Compound |
| --- | --- | --- |
| <24 | 0.073 | COc1c(C(=O)O)cnn1-c1cccc(-c2cccc(C)c2OCc2ccc3c(c2)CCN(CCS(C)(=O)=O)C3)n1 [Compound 74] |
| 47 | 0.017 | COc1c(C(=O)O)cnn1-c1cccc(-c2cccc(C)c2OCc2ccc3c(c2)CCN(CC2CC2(F)F)C3)n1 (centres unmarked) [Compound 72, 1-(6-{2-[2-(2,2-difluoro-cyclopropylmethyl)-1,2,3,4-tetrahydro-isoquinolin-6-ylmethoxy]-3-methyl-phenyl}-pyridin-2-yl)-5-methoxy-1H-pyrazole-4-carboxylic acid] |
| <24 | 0.17 | CCOc1c(C(=O)O)cnn1-c1cccc(-c2cccc(C)c2OCc2ccc3c(c2)CCN(C(C)C)C3)n1 [Compound 32] |
| <24 | 0.12 | Cc1cccc(-c2cccc(-n3ncc(C(=O)O)c3OC(C)C)n2)c1OCc1ccc2c(c1)CCN(C(C)C)C2 [Compound 37] |
| <24 | 0.087 | CCOc1c(C(=O)O)cnn1-c1cccc(-c2cccc(C)c2OCc2ccc3c(c2)CCN(C2COC2)C3)n1 [Compound 6] |
| <24 | 0.066 | COCC(C)N1CCc2cc(COc3c(C)cccc3-c3cccc(-n4ncc(C(=O)O)c4OC(C)C)n3)ccc2C1 (centres unmarked) [Compound 38] |
| <24 | 0.41 | COc1c(C(=O)O)cnn1-c1cccc(-c2cccc(C)c2OCc2ccc3c(c2)CCN(C2CCOCC2OC)C3)n1 (centres unmarked) [Compound 81] |
| <24 | 0.082 | CCOc1c(C(=O)O)cnn1-c1cccc(-c2cccc(Cl)c2OCc2ccc3c(c2)CCN(CCOC)C3)n1 [Compound 58] |
| 30 | 0.024 | CCOc1c(C(=O)O)cnn1-c1cccc(-c2cccc(C)c2OCc2ccc3c(c2)CCN(CC2CC(F)(F)C2)C3)n1 [Compound 96] |
| <24 | 0.029 | CCOc1c(C(=O)O)cnn1-c1cccc(-c2cccc(C)c2OCc2ccc3c(c2)CCN(C2CCOC2)C3)n1 (centres unmarked) [Compound 35] |
| <24 | 0.041 | COc1c(C(=O)O)cnn1-c1cccc(-c2cccc(C)c2OCc2ccc3c(c2)CCN(C2CCOCC2C)C3)n1 (centres unmarked) [Compound 86] |
| <24 | 0.045 | CCOc1c(C(=O)O)cnn1-c1cccc(-c2cccc(C)c2OCc2ccc3c(c2)CCN(CC2CCOC(C)(C)C2)C3)n1 (centres unmarked) [Compound 80] |
| <24 | 0.019 | COc1c(C(=O)O)cnn1-c1cccc(-c2cccc(C)c2OCc2ccc3c(c2C)CCN(C2CCOC2)C3)n1 (centres unmarked) [Compound 31] |
| <24 | 0.028 | COc1c(C(=O)O)cnn1-c1cccc(-c2cccc(C(F)(F)F)c2OCc2ccc3c(c2C)CCN(C2COC2)C3)n1 [Compound 88] |
| <24 | 0.82 | CCOc1c(C(=O)O)cnn1-c1cccc(-c2cccc(Cl)c2OCc2ccc3c(c2)CCN(C(C)CO)C3)n1 (centres unmarked) [Compound 56] |
